Data taken from patent publication US11730720B2, “ALK5 inhibitors” (THERAVANCE BIOPHARMA R&D IP, LLC, priority 2018, dated 2023).

Tests used:
[1] = biological target: T1, recombinant human ALK5 (TGF-βR1) protein (Homo sapiens, UniProt P36897); experiment: Biochemical ALK5 (TGF-βR1) assay to measure pKi (LANCE Ultra ULight kinase assay); settings: apparent pKi, converted from pIC50 using the Cheng-Prusoff equation
T1 construct: purchased Life Technologies PR9075A
T1 sequence (P36897 34-503): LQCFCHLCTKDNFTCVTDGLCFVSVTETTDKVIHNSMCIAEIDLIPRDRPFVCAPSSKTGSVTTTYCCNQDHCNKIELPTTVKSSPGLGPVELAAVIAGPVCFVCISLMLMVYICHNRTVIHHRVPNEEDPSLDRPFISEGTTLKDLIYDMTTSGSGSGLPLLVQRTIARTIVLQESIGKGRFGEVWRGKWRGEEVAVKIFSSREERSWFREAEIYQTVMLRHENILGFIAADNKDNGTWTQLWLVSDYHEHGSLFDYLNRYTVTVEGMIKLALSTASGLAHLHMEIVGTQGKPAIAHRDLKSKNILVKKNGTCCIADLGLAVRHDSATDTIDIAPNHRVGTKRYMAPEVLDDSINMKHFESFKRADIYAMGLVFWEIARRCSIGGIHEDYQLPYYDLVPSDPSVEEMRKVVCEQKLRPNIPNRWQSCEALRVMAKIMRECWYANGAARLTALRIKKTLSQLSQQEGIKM
Outline: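 TR-FRET kinase format: compound dose range 10 μM–25 pM equilibrated 60 min with human ALK5 and ULight-labelled topoisomerase 2α peptide in HEPES/MgCl2 buffer pH 7.5 with DTT. Reaction started with ATP (125 μM stock, 5× final), 60 min at 37° C, stopped with EDTA/Eu-anti-phospho antibody; pKi derived from pIC50 via Cheng-Prusoff.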

[2] = test system: TGF-β-stimulated SMAD3 phosphorylation in BEAS-2B cells; experiment: Cellular ALK5 potency assay, inhibition of TGF-β stimulated pSMAD3 formation in BEAS-2B cells; assay type: cell-based; settings: Homo sapiens, inhibition of TGF-β (10 ng/mL) stimulated pSMAD3 formation, 1 hour compound incubation, read-out: BEAS2B pIC50 (converted)
Outline: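 Phospho-SMAD3 was quantified by AlphaLISA in lysates of human lung epithelial BEAS-2B cells. Compound was added 1 h (37 °C, HEPES/BSA-supplemented HBSS) before a 30 min challenge with 10 ng/mL TGF-β. Values are pIC50 relative to stimulated cells without compound.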

Ki [1]	SMILES	IC50 [2]
3.98 to 31.6 nM	OCCN1CCN(c2cnc3ccc(-c4c[nH]nc4-c4ccc(F)c(F)c4)nc3c2)CC1 [Compound 8-8, 2-[4-[6-[3-(3,4-difluorophenyl)-1H-pyrazol-4-yl]-1,5-naphthyridin-3-yl]piperazin-1-yl]ethanol]	25.1 to 158 nM
0.398 to 3.16 nM	NC1CCN(c2cnc3ccc(-c4c[nH]nc4-c4ccc(F)c(F)c4)nc3c2)C1 (stereo not shown) [Compound 8-9, 1-[6-[3-(3,4-difluorophenyl)-1H-pyrazol-4-yl]-1,5-naphthyridin-3-yl]pyrrolidin-3-amine]	25.1 to 158 nM
0.398 to 3.16 nM	CC(C)N1CCN(c2cnc3ccc(-c4c[nH]nc4-c4ccc(F)c(F)c4)nc3c2)CC1 [Compound 8-10, 2-[3-(3,4-difluorophenyl)-1H-pyrazol-4-yl]-7-(4-isopropylpiperazin-1-yl)-1,5-naphthyridine]	25.1 to 158 nM
0.398 to 3.16 nM	Fc1ccc(-c2n[nH]cc2-c2ccc3ncc(N4CCC(N5CCCC5)CC4)cc3n2)cc1F [Compound 8-11, 2-[3-(3,4-difluorophenyl)-1H-pyrazol-4-yl]-7-(4-pyrrolidin-1-yl-1-piperidyl)-1,5-naphthyridine]	25.1 to 158 nM
≤ 0.0316 nM	CNCCn1cc(-c2cnc3ccc(-c4c[nH]nc4-c4ccc(F)c(F)c4)nc3c2)cn1 [Compound 8-12, 2-(4-(6-(3-(3,4-difluorophenyl)-1H-pyrazol-4-yl)-1,5-naphthyridin-3-yl)-1H-pyrazol-1-yl)-N-methylethan-1-amine]	≤ 20 nM
0.398 to 3.16 nM	Fc1ccc(-c2n[nH]cc2-c2ccc3ncc(-c4cn[nH]c4)cc3n2)cc1F [Compound 8-13, 2-[3-(3,4-difluorophenyl)-1H-pyrazol-4-yl]-7-(1H-pyrazol-4-yl)-1,5-naphthyridine]	≤ 20 nM
0.398 to 3.16 nM	CNCCn1ccc(-c2cnc3ccc(-c4c[nH]nc4-c4ccc(F)c(F)c4)nc3c2)n1 [Compound 8-14, 2-[3-[6-[3-(3,4-difluorophenyl)-1H-pyrazol-4-yl]-1,5-naphthyridin-3-yl]pyrazol-1-yl]-N-methyl-ethanamine]	25.1 to 158 nM
≤ 0.0316 nM	Fc1ccc(-c2n[nH]cc2-c2ccc3ncc(-c4cnn(CC5CNC5)c4)cc3n2)cc1F [Compound 8-15, 7-[1-(azetidin-3-ylmethyl)pyrazol-4-yl]-2-[3-(3,4-difluorophenyl)-1H-pyrazol-4-yl]-1,5-naphthyridine]	25.1 to 158 nM
3.98 to 31.6 nM	Cn1cccc(-c2cnc3ccc(-c4c[nH]nc4-c4ccc(F)c(F)c4)nc3c2)c1=O [Compound 8-16, 3-[6-[3-(3,4-difluorophenyl)-1H-pyrazol-4-yl]-1,5-naphthyridin-3-yl]-1-methyl-pyridin-2-one]	25.1 to 158 nM
≤ 0.0316 nM	NCCn1cc(-c2cnc3ccc(-c4c[nH]nc4-c4ccc(F)c(F)c4)nc3c2)cn1 [Compound 8-17, 2-[4-[6-[3-(3,4-difluorophenyl)-1H-pyrazol-4-yl]-1,5-naphthyridin-3-yl]pyrazol-1-yl]ethanamine]	≤ 20 nM
0.398 to 3.16 nM	O=C(O)Cn1cc(-c2cnc3ccc(-c4c[nH]nc4-c4ccc(F)c(F)c4)nc3c2)cn1 [Compound 8-18, 2-[4-[6-[3-(3,4-difluorophenyl)-1H-pyrazol-4-yl]-1,5-naphthyridin-3-yl]pyrazol-1-yl]acetic acid]	25.1 to 158 nM
0.0398 to 0.316 nM	NC1CC=C(c2cnc3ccc(-c4c[nH]nc4-c4ccc(F)c(F)c4)nc3c2)CC1 (stereo not shown) [Compound 8-19, 4-[6-[3-(3,4-difluorophenyl)-1H-pyrazol-4-yl]-1,5-naphthyridin-3-yl]cyclohex-3-en-1-amine]	≤ 20 nM
0.398 to 3.16 nM	Fc1ccc(-c2n[nH]cc2-c2ccc3ncc(C4=CCNC4)cc3n2)cc1F [Compound 8-20, 2-[3-(3,4-difluorophenyl)-1H-pyrazol-4-yl]-7-(2,5-dihydro-1H-pyrrol-3-yl)-1,5-naphthyridine]	25.1 to 158 nM
0.0398 to 0.316 nM	OCCn1cc(-c2cnc3ccc(-c4c[nH]nc4-c4ccc(F)c(F)c4)nc3c2)cn1 [Compound 8-21, 2-(4-(6-(3-(3,4-difluorophenyl)-1H-pyrazol-4-yl)-1,5-naphthyridin-3-yl)-1H-pyrazol-1-yl)ethan-1-ol]	≤ 20 nM
0.398 to 3.16 nM	CN1CC=C(c2cnc3ccc(-c4c[nH]nc4-c4ccc(F)c(F)c4)nc3c2)C1 [Compound 8-22, 2-(3-(3,4-difluorophenyl)-1H-pyrazol-4-yl)-7-(1-methyl-2,5-dihydro-1H-pyrrol-3-yl)-1,5-naphthyridine]	25.1 to 158 nM
0.398 to 3.16 nM	CC(C)N1CC=C(c2cnc3ccc(-c4c[nH]nc4-c4ccc(F)c(F)c4)nc3c2)C1 [Compound 8-23, 2-[3-(3,4-difluorophenyl)-1H-pyrazol-4-yl]-7-(1-isopropyl-2,5-dihydropyrrol-3-yl)-1,5-naphthyridine]	25.1 to 158 nM
≤ 0.0316 nM	CC(C)NC1CC=C(c2cnc3ccc(-c4c[nH]nc4-c4ccc(F)c(F)c4)nc3c2)CC1 (stereo not shown) [Compound 8-24, 4-(6-(3-(3,4-difluorophenyl)-1H-pyrazol-4-yl)-1,5-naphthyridin-3-yl)-N-isopropylcyclohex-3-en-1-amine]	≤ 20 nM
0.0398 to 0.316 nM	CN(C)C1CC=C(c2cnc3ccc(-c4c[nH]nc4-c4ccc(F)c(F)c4)nc3c2)CC1 (stereo not shown) [Compound 8-25, 4-[6-[3-(3,4-difluorophenyl)-1H-pyrazol-4-yl]-1,5-naphthyridin-3-yl]-N,N-dimethyl-cyclohex-3-en-1-amine]	25.1 to 158 nM
0.0398 to 0.316 nM	Fc1ccc(-c2n[nH]cc2-c2ccc3ncc(C4=CCC(NCc5ccccc5)CC4)cc3n2)cc1F (stereo not shown) [Compound 8-26, N-benzyl-4-[6-[3-(3,4-difluorophenyl)-1H-pyrazol-4-yl]-1,5-naphthyridin-3-yl]cyclohex-3-en-1-amine]	25.1 to 158 nM
0.0398 to 0.316 nM	CNCCn1cc(-c2cnc3ccc(-c4c[nH]nc4-c4ccc(F)c(F)c4)nc3c2)nn1 [Compound 8-27, 2-(4-(6-(3-(3,4-difluorophenyl)-1H-pyrazol-4-yl)-1,5-naphthyridin-3-yl)-1H-1,2,3-triazol-1-yl)-N-methylethan-1-amine]	25.1 to 158 nM
0.398 to 3.16 nM	Fc1ccc(-c2[nH]cnc2-c2ccc3ncc(NCCN4CCNCC4)cc3n2)cc1F [Compound 9-1, 6-(5-(3,4-difluorophenyl)-1H-imidazol-4-yl)-N-(2-(piperazin-1-yl)ethyl)-1,5-naphthyridin-3-amine]	200 to 1260 nM
3.98 to 31.6 nM	CC(C)N1CCN(CCNc2cnc3ccc(-c4nc[nH]c4-c4ccc(F)c(F)c4)nc3c2)CC1 [Compound 9-2, 6-[5-(3,4-difluorophenyl)-1H-imidazol-4-yl]-N-[2-(4-isopropylpiperazin-1-yl)ethyl]-1,5-naphthyridin-3-amine]	25.1 to 158 nM
≤ 0.0316 nM	CNCCn1cc(-c2cnc3ccc(-c4nc[nH]c4-c4ccc(F)c(F)c4)nc3c2)cn1 [Compound 9-3, 2-(4-(6-(5-(3,4-difluorophenyl)-1H-imidazol-4-yl)-1,5-naphthyridin-3-yl)-1H-pyrazol-1-yl)-N-methylethan-1-amine]	≤ 20 nM
0.0398 to 0.316 nM	Fc1ccc(-c2n[nH]cc2-c2ccc3ncc(-c4cn[nH]c4)cc3n2)c(F)c1 [Compound 10-1, 2-(3-(2,4-difluorophenyl)-1H-pyrazol-4-yl)-7-(1H-pyrazol-4-yl)-1,5-naphthyridine]	≤ 20 nM
3.98 to 31.6 nM	CC(C)N1CCN(CCNc2cnc3ccc(-c4c[nH]nc4-c4ccc(F)cc4F)nc3c2)CC1 [Compound 10-2, 6-(3-(2,4-difluorophenyl)-1H-pyrazol-4-yl)-N-(2-(4-isopropylpiperazin-1-yl)ethyl)-1,5-naphthyridin-3-amine]	25.1 to 158 nM
0.398 to 3.16 nM	CN1CCN(C2CCN(c3cnc4ccc(-c5c[nH]nc5-c5ccccc5F)nc4c3)CC2)CC1 [Compound 11-1, 2-(3-(2-fluorophenyl)-1H-pyrazol-4-yl)-7-(4-(4-methylpiperazin-1-yl)piperidin-1-yl)-1,5-naphthyridine]	25.1 to 158 nM
0.398 to 3.16 nM	NC1CCN(c2cnc3ccc(-c4c[nH]nc4-c4ccccc4F)nc3c2)C1 (stereo not shown) [Compound 11-2, 1-(6-(3-(2-fluorophenyl)-1H-pyrazol-4-yl)-1,5-naphthyridin-3-yl)pyrrolidin-3-amine]	25.1 to 158 nM
3.98 to 31.6 nM	CC(C)N1CCN(c2cnc3ccc(-c4c[nH]nc4-c4ccccc4F)nc3c2)CC1 [Compound 11-3, 2-[3-(2-fluorophenyl)-1H-pyrazol-4-yl]-7-(4-isopropylpiperazin-1-yl)-1,5-naphthyridine]	25.1 to 158 nM
3.98 to 31.6 nM	Fc1ccccc1-c1n[nH]cc1-c1ccc2ncc(-c3cccnc3)cc2n1 [Compound 11-4, 2-[3-(2-fluorophenyl)-1H-pyrazol-4-yl]-7-(3-pyridyl)-1,5-naphthyridine]	25.1 to 158 nM
